Experimental data from US7585855B2, “Bengamides with a substituted caprolactam cycle, method for the preparation thereof, compositions containing them and use thereof” (Aventis Pharma SA, priority 2004, dated 2009).

Tested on: Hep-G2 cells
Assay: Inhibition of cell proliferation of Hep-G2 cells (intracellular ATP, CellTiterGlo)
Type: cell-based
Settings: Homo sapiens, HepG2, 72 hours incubation, ATP content, read-out: IC 50 (μM)/HEP G2
Description: The antiproliferative activity of product 3 was determined by measuring the inhibition of cell proliferation of Hep-G2 cells. The cells are subcultured in a cell culture medium at a concentration of 1000 cells per well, and incubated for 4 hours at 37° C. and 5% CO2.
Medium used for the Hep-G2 cell culture: Dubelcco's modified Eagle's medium/Ham mixture F12 (Gibco); NEAA (10%; nonessential amino acids, Gibco); sodium pyruvate (1%, Gibco); L-glutamine (1%, Gibco); fetal calf serum (5%; PAA).
After 4 hours, the test products dissolved in a DMSO/cell culture medium mixture are added at various concentrations and the resulting mixtures are incubated for 72 hours at 37° C. and 5% CO2. The intracellular ATP content was measured using the CellTiterGlo test reagent (Promega).

Row | IC50 [µM] | Structure (SMILES)
1 | 0.02 | CCC(C)/C=C/[C@@H](O)[C@H](O)[C@@H](O)[C@@H](OC)C(=O)N[C@H]1CCCCN(Cc2ccccc2)C1=O (stereo partly drawn) [Example 3, N-[(S)-1-(4-benzyl)-2-oxoperhydroazepin-3-yl]-(E)-(2R,3R,4S,5R)-3,4,5-trihydroxy-2-methoxy-8-methyldec-6-enamide]
2 | 7 | CO[C@@H](C(=O)N[C@H]1CCCCNC1=O)[C@H](O)[C@@H](O)[C@H](O)/C=C/C(C)C [Bengamide E]
